Format in all cases: functional, cell-based
Test [1] has as its system KB. Nature of the test: Antiproliferative activity against wild-type human KB cells after 24 hrs by MTS assay.
For the next test, the system named is L1210. Nature of the test: Antiproliferative activity against mouse L1210 cells after 24 hrs by MTS assay. To be noted: L1210, 24 h. On the technique in general: Tetrazolium dyes change colour on reduction, which living cells bring about.
Test [2] has as its system KB. Nature of the test: Antiproliferative activity against hydroxyurea-resistant human KB cells after 24 hrs by MTS assay.
For the next test, the system named is MT4. Put plainly: Antiproliferative activity against human MT4 cells after 96 hrs by MTT assay. To be noted: MT4, 96 h.
Another test relates to MCF7. Put plainly: Antiproliferative activity against human MCF7 cells after 96 hrs by MTT assay. To be noted: MCF7, 96 h.
A further test has as its system CCRF-CEM. Put plainly: Antiproliferative activity against human CCRF-CEM cells after 96 hrs by MTT assay.
A further test relates to CCRF-SB. Nature of the test: Antiproliferative activity against human CCRF-SB cells after 96 hrs by MTT assay.
The subject of another test is WIL2-NS. Nature of the test: Antiproliferative activity against human WIL2-NS cells after 96 hrs by MTT assay.
Another test deals with SK-MEL-28. Put plainly: Antiproliferative activity against human SK-MEL-28 cells after 96 hrs by MTT assay. The settings on record: SK-MEL-28, 96 h.

Each structure is given as a SMILES string.

With `Cc1c2ccccc2c(/C=N/NC(=O)NO)c2ccccc12`, the IC50 came to 9.3 µM with KB [1], 6.5 µM in the test with L1210 and 8.9 µM in the test with KB [2].
As for `O=[N+]([O-])c1ccc(/C=N\c2nsc3ccccc23)o1`, the IC50 in the test on MT4 stood at 2 µM; in the test with MCF7, 10 µM; with CCRF-CEM, 2 µM; with CCRF-SB, 5 µM; in the test with WIL2-NS, 6.5 µM; with SK-MEL-28 it was 6 µM.

Broadly, the IC50 is the concentration that inhibits the measured activity by half.

For the origin of these results see ChEMBL document CHEMBL2396568, “An insight into synthetic Schiff bases revealing antiproliferative activities in vitro” (Bioorg Med Chem, 2013).
